Where “and” joins values, the source holds several entries; their conditions need not be identical. Identical values can stand only once.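 Compound exposure: 48 hours, 5 concentrations, 96-well plates. GI50: concentration for 50% inhibition of growth. Definition used: TGI = concentration required for complete inhibition of growth.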
Columns and labels:
Experiment in all cases: NCI tumour cell line growth inhibition, 48 h
[1] = test system: BT-549 breast
[2] = test system: MDA-N
[3] = test system: DLD-1 colon
[4] = test system: DMS 273 small cell lung
[5] = test system: RXF-631 renal
[6] = test system: XF 498 CNS

SMILES | TGI [1] | GI50 [1] | TGI [3] | TGI [4] | TGI [5] | TGI [6] | also measured
COC(=O)C1(Cc2cccc(Cl)c2)CCCCCCN1C(=O)c1ccccc1 (stereo not given) | 40.8 µM | – | – | – | – | – | TGI [2]: 30.4 µM
COc1cc(C2C(C#N)=C(N)OC3=C2C(=O)c2ccccc2C3=O)cc(OC)c1OC (stereo not given) | 18.5 µM | 1.43 µM | – | – | – | – | –
COc1ccc(/C=C(\C#N)c2cc3ccccc3n2C)cc1 | > 100 µM | 0.627 µM | – | – | – | – | –
O=[As](O)(O)c1ccc(Cc2ccc([As](=O)(O)O)cc2)cc1 | 3.09 µM | – | – | – | – | – | TGI [2]: 1.65 µM
O=C1C2=C(c3ccccc31)C(c1ccccc1Cl)N1C(=O)CSC1=N2 (stereo not given) | – | – | > 100 µM | > 100 µM | > 100 µM | > 100 µM | –
O=[N+]([O-])c1ccc2c(N=Nc3c(O)ccc4ccccc34)c(O)cc(S(=O)(=O)O)c2c1 | 50 µM and > 100 µM | 37.5 µM | – | – | – | – | GI50 [2]: 45.3 µM; TGI [2]: 50 µM and > 100 µM
COC1=C(OC)CCC(/C(C#N)=C/c2ccc(OC)c(OC)c2)=C1 | – | – | > 100 µM | > 100 µM | > 100 µM | – | –
CCNCC(O)c1ccc(N)c([N+](=O)[O-])c1 (stereo not given) | > 100 µM | – | – | – | – | – | TGI [2]: > 100 µM
O=Cc1coc2ccccc2c1=O | 36.8 µM | – | – | – | – | – | TGI [2]: 52.3 µM
O=C(/C=C\c1ccnc2ccccc12)c1ccc([N+](=O)[O-])cc1 | 27.4 µM | 11.2 µM | – | – | – | – | –
O=c1nc2cc(-c3ccccc3)[nH]c2nn1-c1c(Cl)cc(Cl)cc1Cl | – | – | > 100 µM | > 100 µM | > 100 µM | 64.1 µM | –
Cc1nc(NC(=O)N2CCC[C@H]2C(N)=O)sc1-c1ccnc(C(C)(C)C(F)(F)F)c1 | 44.6 µM and > 10 µM | 4.91 µM and 6.33 µM | – | – | – | – | –
CCOC(=O)C(C)(C)Oc1ccc2c(-c3ccc(Cl)cc3)cc(=O)oc2c1 | – | – | > 100 µM | > 100 µM | > 100 µM | – | –
CCNCCNc1cc(-c2ccc(F)cc2)c(C#N)c2nc3ccccc3n12 | 15.5 µM | 4.53 µM | – | – | – | – | –
CCC1(OC(C)=O)C(=O)OCc2c1cc1n(c2=O)Cc2cc3ccccc3nc2-1 (stereo not given) | – | – | > 100 µM | – | > 100 µM | > 100 µM | –
COc1ccc(NC(=O)C(=O)C2NC(=S)NC2=O)c(OC)c1 (stereo not given) | – | – | > 100 µM | > 100 µM | > 100 µM | – | –
Cn1cnc([N+](=O)[O-])c1Sc1ncnc2c1ncn2C1OC(CO)C(O)C1O (stereo not given) | > 100 µM | > 100 µM | – | – | – | – | –
CCCC[C@@H](COC(=O)N(Cc1cccs1)Cc1cccs1)NC(=O)N[C@@H](CC(=O)OC)c1ccc2c(c1)OCO2 | > 100 µM | > 100 µM | – | – | – | – | –
CCc1cccc(C)c1NC(=O)NS(=O)(=O)c1ccc(C)cc1 | – | – | > 100 µM | > 100 µM | > 100 µM | > 100 µM | –

SMILES | TGI [1] | GI50 [1] | TGI [3] | TGI [4] | TGI [5] | TGI [6] | also measured
O=C(/C=C/c1ccco1)Nc1ncc(Cc2ccc(F)cc2)s1 | > 25.3 µM | 0.368 µM | – | – | – | – | –
O=[N+]([O-])c1ccccc1C1N2CCCCC2[C@@H]2c3[nH]c4ccccc4c3CCN12 (stereo not given in full) | – | – | 36.3 µM | 23.4 µM | 32.8 µM | 30.6 µM | –
CC(=O)Nc1ccc(-c2nnc(SCC(=O)Nc3ccc(C)cc3)o2)cc1 | – | – | 30.2 µM | 30.1 µM | – | – | –
COc1ccc(C(Nc2ncccn2)c2cc3c(cc2O)OCO3)cc1 (stereo not given) | 64.3 µM | – | – | – | – | – | TGI [2]: 42.3 µM
C/C(=N\Nc1ccc([N+](=O)[O-])cc1)C(=O)N(C)Nc1ccccc1 | – | – | > 100 µM | > 100 µM | – | > 100 µM | –
Cc1cc(C)nc(NS(=O)(=O)c2ccc(NC(=O)c3cccc4cc5ccccc5nc34)cc2)n1 | – | – | 98.4 µM | > 100 µM | > 100 µM | 98.2 µM | –
Cn1c(O)c(C(=O)Nc2ccc([N+](=O)[O-])cc2)c(=O)n(C)c1=S | – | – | > 35.5 µM | – | – | – | –
COc1ccc(C2S/C(=C\c3ccc(OC)cc3OC)C(=O)N2NC(=O)Cc2ccccc2)cc1 (stereo not given) | – | – | > 100 µM | > 100 µM | – | – | –
CCN(CC)CCCNC(=O)Cc1ccccc1Nc1c(Cl)cccc1Cl | – | – | 28.3 µM | 28.1 µM | – | 20.8 µM | –
CC1(C)OCN(c2ccc(Cl)cc2)Cn2c1nc1ccccc12 | > 100 µM | – | > 100 µM | > 100 µM | – | > 100 µM | TGI [2]: > 100 µM
Cc1ccc(Nc2ccc(Nc3ccc(C)cc3)c3c2C(=O)c2c(O)ccc(O)c2C3=O)cc1 | – | – | > 100 µM | > 100 µM | – | > 100 µM | –
CC[C@@H]1OC2(C)CC(S(=O)(=O)c3ccccc3)CC1O2 (stereo not given in full) | – | – | > 100 µM | > 100 µM | > 100 µM | – | –
Fc1ccccc1C1CC(C(c2ccccc2)c2ccccc2)=Nc2ccccc2S1 (stereo not given) | – | – | 23.6 µM | 20.9 µM | 27.2 µM | 27.1 µM | –
FC(F)(F)c1ccc(-c2cnc(Br)nc2NC2CCCCCC2)cc1 | > 100 µM | 72.9 µM | – | – | – | – | –
N#Cc1nc(-c2ccccc2)oc1S(=O)(=O)N1CCOCC1 | 19.6 µM | 6.67 µM | – | – | – | – | –
COc1ccc(O)c2c1C(=O)CCCC2=O | – | – | > 100 µM | > 100 µM | > 100 µM | > 100 µM | –
CC(=O)/C(C)=N/N/C(N)=N\S(=O)(=O)c1cc(C(=O)Nc2ccccc2)c(Cl)cc1SCc1ccccc1 | > 100 µM | 23.8 µM | – | – | – | – | –
COc1ccc(/C=C\c2cc(OC)c(OC)c(OC)c2)c(NS(=O)(=O)c2ccc(C)cc2)c1O | 3.04 µM | 0.035 µM | – | – | – | – | –
